Four compounds from US20220387635A1, “PET IMAGING OF CANCEROUS CELLS USING 18F-FLUOROACETATE” (priority 2019, published 2022) can be followed below.

One data set concerns NALM-6 ALL cells. The data set is described as follows: In vitro radiotracer uptake in NALM-6 cells. Format: cell-based. Conditions: for Uptake rate: normalized to [14C]-thymidine, Example 1; for Uptake rate (slope of linear trendline of cell:media ratio): uptake measured at 30, 60, 120 min, FIG. 1 legend. How it is done: Cell uptake studies were performed in the presence of [^3H]-flouroacetate, [^3H]-glucose, and [^14C]-thymidine. Uptake levels were measure at 30, 60, and 120-minute intervals and expressed as a ratio of cellular retention versus concentration in surrounding media (cell:media ratio). Uptake rates were determined as a function of the slope of linear trendline. [^3H]-flouroacetate uptake rates were higher (dotted line; 0.053 min^−1) compared to glucose (dashed line; 0.028 min-1) and thymidine (solid line; 0.024 min^−1).
In vitro uptake of [^3H]-FA, [^3H]-glucose, and [^14C]-thymidine. Radiotracer uptake studies were performed as described previously (Najjar et al., 2009). Briefly, 10^7 NALM-6 were suspended in 6 mL of RPMI medium containing 10% FBS, [^14C]thymidine (0.01 μCi/mL; Moravek, Brea, Calif., USA) and [^3H]-fluoroacetate (0.1 μCi/mL; Moravek) or [^14C]thymidine (0.01 μCi/mL and [^3H]-glucose (2.5 μCi/mL). At time intervals of 30, 60, and 120 minutes, 1 mL aliquots were removed and the cells were pelleted in pre-weighed vials. A […], aliquot of the supernatant was transferred to a pre-weighed scintillation tube. The pellets were weighed following removal of the remainder of the media and thoroughly resuspended in 0.1 mL of Soluene-350 (Perkin-Elmer, Boston, Mass.). Radioactive beta emissions of the media and cell pellets were measured within pre-calibrated energy ranges using a Packard Tri-Carb 3100TR scintillation counter to quantitate [^3H]-FA, [^3H]-glucose, and [^14C]-thymidine uptake. The activity accumulation ratios of the cell pellets to the media ([disintegrations per minute/g cells]/[disintegrations per minute/g media]) were then determined and plotted.
Accordingly, in vitro radiotracer uptake studies were performed to determine the metabolic preference of NALM-6 cells for uptake and retention of fluoroacetate and glucose. The accumulation [^3H]-fluoroacetate and [^3H]-glucose was measured and compared separate experiments (FIG. 1). Uptake levels were normalized to [^14C]-thymidine levels for direct comparison. […] The rates of [^3H]-glucose and [^14C]-thymidine were more closely matched at 0.028 and 0.024 min^−1, respectively.

Data set [1] deals with NALM-6 tumor within the central nervous system. In words: Dynamic PET time-activity curve in brain and spinal cord. The format is in vivo, mouse. Conditions: 1-hour dynamic PET; NALM-6 tumor-bearing (LMD) vs normal mice. The source says: Time-activity curve of [^18F]-fluoroacetate biodistribution within the brain and spinal cord. A dynamic PET scan was used to determine the time-dependent distribution [^18F]-fluoroacetate within regions-of-interest (ROI) in the brains and spinal cords of normal (control) and NALM-6 tumor-bearing (LMD) mice.

Entries after “also recorded” stand apart in the source; their conditions may differ.

For the compound `[3H]C(F)C(=O)O` (centres unmarked) [[^3H]-fluoroacetate], in the data set on NALM-6 ALL cells, the “Uptake rate relative to [3H]-glucose” value was “nearly twice the rate”, the Uptake rate came out at 0.056 min⁻¹ and the “Uptake rate (slope of linear trendline of cell:media ratio)” value was 0.053 min⁻¹.

For the compound `OC[C@H]1OC(O)[C@H](O)[C@@H](O)[C@@H]1O` (some centres unmarked) [[^3H]-glucose], in the data set with NALM-6 ALL cells, the Uptake rate was 0.028 min⁻¹ and the “Uptake rate (slope of linear trendline of cell:media ratio)” value was found to be 0.028 min⁻¹.

For `Cc1cn([C@H]2C[C@H](O)[C@@H](CO)O2)c(=O)[nH]c1=O` [[^14C]-thymidine], in the data set with NALM-6 ALL cells, the Uptake rate came to 0.024 min⁻¹ and the “Uptake rate (slope of linear trendline of cell:media ratio)” value turned out to be 0.024 min⁻¹.

Take `O=C(O)C[18F]` [[^18F]-fluoroacetate, ^18F-fluoroacetate]: in data set [1], the “Time-dependent distribution in brain and spinal cord ROI (time-activity curve)” value is on record as “preferential accumulation of the radiotracer in regions of NALM-6 tumor within the central nervous system; also recorded: higher baseline levels”.
